Assay results published in ChEMBL document CHEMBL6087462, “Cuminaldehyde Potentiates Antiproteolytic Peptide Efficacy via Parallel Pathways of Enhanced Inner Membrane-Damaging Activity and Inhibition of Bacterial Energy Metabolism” (J Med Chem, 2025).

How the values were obtained:
Format in all cases: functional
[1] = Antimicrobial activity against Salmonella enterica subsp. enterica serovar Pullorum ATCC 7913 assessed as cuminaldehyde MIC by CLSI based broth microdilution method
[2] = test system: Staphylococcus epidermidis; assay: Synergistic antimicrobial activity against Staphylococcus epidermidis 12228 assessed as fractional inhibitory concentration index in presence of citral by checkerboard broth microdilution assay
Escherichia coli [3] = assay: Synergistic antimicrobial activity against Escherichia coli K99 assessed as fractional inhibitory concentration by checkerboard broth microdilution assay
Staphylococcus aureus [4] = assay: Synergistic antimicrobial activity against Staphylococcus aureus 29213 assessed as fractional inhibitory concentration index in presence of carvacrol by checkerboard broth microdilution assay
Escherichia coli [5] = assay: Antimicrobial activity against Escherichia coli ATCC 25922 assessed as reduction in microbial growth by CLSI based broth microdilution method
Escherichia coli [6] = assay: Synergistic antimicrobial activity against Escherichia coli UB1005 assessed as fractional inhibitory concentration index in presence of thymol by checkerboard broth microdilution assay
Pseudomonas aeruginosa = assay: Antimicrobial activity against Pseudomonas aeruginosa ATCC 27853 assessed as reduction in microbial growth in presence of cuminaldehyde by CLSI based broth microdilution method
Staphylococcus aureus [7] = assay: Synergistic antimicrobial activity against Staphylococcus aureus 25923 assessed as fractional inhibitory concentration index in presence of cuminaldehyde by checkerboard broth microdilution assay
Staphylococcus aureus [8] = assay: Synergistic antimicrobial activity against Staphylococcus aureus 43300 assessed as fractional inhibitory concentration by checkerboard broth microdilution assay

Structure (SMILES): CC[C@H](C)[C@H](NC(=O)[C@@H](NC(=O)[C@@H](CCCNC(=N)N)NC(=O)[C@H](C)NC(=O)[C@H](C)NC(=O)[C@@H](N)Cc1cccc2ccccc12)[C@@H](C)CC)C(=O)N[C@@H](CC(C)C)C(=O)N[C@H](CCCNC(=N)N)C(=O)N[C@@H](Cc1c[nH]c2ccccc12)C(=O)N[C@H](CCCNC(=N)N)C(=O)N[C@@H](Cc1ccccc1)C(=O)N[C@@H](CCCNC(=N)N)C(=O)O
- MIC [1]: 1020 µg/mL
- fractional inhibitory concentration index (FICI) [2]: 0.5
- FIC (Escherichia coli [3]): 0.25
- fractional inhibitory concentration index (FICI) (Staphylococcus aureus [4]): 0.313
- MIC (Escherichia coli [5]): 4 µg/mL
- fractional inhibitory concentration index (FICI) (Escherichia coli [6]): 0.25
- MIC (Pseudomonas aeruginosa): 2 µg/mL
- fractional inhibitory concentration index (FICI) (Staphylococcus aureus [7]): 0.188
- FIC (Staphylococcus aureus [8]): 0.25
